ChEMBL document CHEMBL1201862, “PubChem BioAssay data set” (2004)
Activity calls are given as the source filed them.

Columns and labels:
Trypsin = Trypsin (Sus scrofa, UniProt P00761); test: porcine trypsin inhibitors, dose response, selectivity assay for Rce1 protease inhibitor project, biochemical, quenched peptide fluorescence, cherry-pick (AID 488789)
CAAX prenyl protease 1 = CAAX prenyl protease 1 (Saccharomyces cerevisiae S288c, UniProt P47154); test: Ste24 protease inhibitors, dose response, biochemical, S. cerevisiae, plate reader, cherry-pick (AID 488815)
CAAX prenyl protease 1, sequence (P47154 whole entry): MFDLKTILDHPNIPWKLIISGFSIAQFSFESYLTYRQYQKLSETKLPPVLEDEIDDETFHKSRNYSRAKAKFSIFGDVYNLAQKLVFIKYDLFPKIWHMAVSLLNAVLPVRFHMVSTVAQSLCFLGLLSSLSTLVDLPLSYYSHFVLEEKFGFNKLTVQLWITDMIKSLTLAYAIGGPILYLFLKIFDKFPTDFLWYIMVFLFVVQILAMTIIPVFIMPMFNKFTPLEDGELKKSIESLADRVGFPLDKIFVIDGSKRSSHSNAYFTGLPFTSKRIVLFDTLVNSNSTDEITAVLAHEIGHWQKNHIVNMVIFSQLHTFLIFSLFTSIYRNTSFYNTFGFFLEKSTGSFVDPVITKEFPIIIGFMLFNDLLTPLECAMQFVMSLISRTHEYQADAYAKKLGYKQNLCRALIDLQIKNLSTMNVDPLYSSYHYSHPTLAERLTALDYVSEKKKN

CAAX prenyl protease 2 = molecular target: T1, CAAX prenyl protease 2 (Homo sapiens, UniProt Q9Y256); test: human Rce1 protease inhibitors, dose response, biochemical, yeast membranes, quenched-peptide fluorescence, cherry-pick (AID 588849)
T1 sequence (Q9Y256 whole entry): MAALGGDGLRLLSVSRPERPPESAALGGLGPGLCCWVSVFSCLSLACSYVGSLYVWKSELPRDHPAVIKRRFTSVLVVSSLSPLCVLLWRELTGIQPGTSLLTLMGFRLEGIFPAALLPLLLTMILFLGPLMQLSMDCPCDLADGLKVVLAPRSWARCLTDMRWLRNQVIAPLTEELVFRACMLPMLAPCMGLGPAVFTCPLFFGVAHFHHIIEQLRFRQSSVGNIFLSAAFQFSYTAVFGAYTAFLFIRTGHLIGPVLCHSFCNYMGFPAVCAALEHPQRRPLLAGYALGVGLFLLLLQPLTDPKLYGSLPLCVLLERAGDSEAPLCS

Kallikrein-7 = Kallikrein-7 (Homo sapiens, UniProt P49862); test: Fluorescence Intensity-based biochemical primary high throughput dose response assay to identify activators of kallikrein-7 (K7) zymogen.
Kallikrein-7, sequence (P49862 whole entry): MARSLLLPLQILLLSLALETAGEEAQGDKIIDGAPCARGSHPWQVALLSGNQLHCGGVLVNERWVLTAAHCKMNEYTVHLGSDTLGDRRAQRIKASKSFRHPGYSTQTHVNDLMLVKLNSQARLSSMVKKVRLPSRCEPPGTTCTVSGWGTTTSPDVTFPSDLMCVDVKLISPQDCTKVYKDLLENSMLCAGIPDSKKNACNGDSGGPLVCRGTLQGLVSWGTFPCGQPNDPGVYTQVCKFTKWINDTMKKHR

Ion channel NompC = Ion channel NompC (Danio rerio, UniProt Q7T1G6); test: Dose response cell-based high-throughput screening assay for agonists of the transient receptor potential channel N1 (TRPN1). [Related pubchem assays (depositor defined):AID1424, AID1448]; assay type: functional
Ion channel NompC, sequence (Q7T1G6 whole entry): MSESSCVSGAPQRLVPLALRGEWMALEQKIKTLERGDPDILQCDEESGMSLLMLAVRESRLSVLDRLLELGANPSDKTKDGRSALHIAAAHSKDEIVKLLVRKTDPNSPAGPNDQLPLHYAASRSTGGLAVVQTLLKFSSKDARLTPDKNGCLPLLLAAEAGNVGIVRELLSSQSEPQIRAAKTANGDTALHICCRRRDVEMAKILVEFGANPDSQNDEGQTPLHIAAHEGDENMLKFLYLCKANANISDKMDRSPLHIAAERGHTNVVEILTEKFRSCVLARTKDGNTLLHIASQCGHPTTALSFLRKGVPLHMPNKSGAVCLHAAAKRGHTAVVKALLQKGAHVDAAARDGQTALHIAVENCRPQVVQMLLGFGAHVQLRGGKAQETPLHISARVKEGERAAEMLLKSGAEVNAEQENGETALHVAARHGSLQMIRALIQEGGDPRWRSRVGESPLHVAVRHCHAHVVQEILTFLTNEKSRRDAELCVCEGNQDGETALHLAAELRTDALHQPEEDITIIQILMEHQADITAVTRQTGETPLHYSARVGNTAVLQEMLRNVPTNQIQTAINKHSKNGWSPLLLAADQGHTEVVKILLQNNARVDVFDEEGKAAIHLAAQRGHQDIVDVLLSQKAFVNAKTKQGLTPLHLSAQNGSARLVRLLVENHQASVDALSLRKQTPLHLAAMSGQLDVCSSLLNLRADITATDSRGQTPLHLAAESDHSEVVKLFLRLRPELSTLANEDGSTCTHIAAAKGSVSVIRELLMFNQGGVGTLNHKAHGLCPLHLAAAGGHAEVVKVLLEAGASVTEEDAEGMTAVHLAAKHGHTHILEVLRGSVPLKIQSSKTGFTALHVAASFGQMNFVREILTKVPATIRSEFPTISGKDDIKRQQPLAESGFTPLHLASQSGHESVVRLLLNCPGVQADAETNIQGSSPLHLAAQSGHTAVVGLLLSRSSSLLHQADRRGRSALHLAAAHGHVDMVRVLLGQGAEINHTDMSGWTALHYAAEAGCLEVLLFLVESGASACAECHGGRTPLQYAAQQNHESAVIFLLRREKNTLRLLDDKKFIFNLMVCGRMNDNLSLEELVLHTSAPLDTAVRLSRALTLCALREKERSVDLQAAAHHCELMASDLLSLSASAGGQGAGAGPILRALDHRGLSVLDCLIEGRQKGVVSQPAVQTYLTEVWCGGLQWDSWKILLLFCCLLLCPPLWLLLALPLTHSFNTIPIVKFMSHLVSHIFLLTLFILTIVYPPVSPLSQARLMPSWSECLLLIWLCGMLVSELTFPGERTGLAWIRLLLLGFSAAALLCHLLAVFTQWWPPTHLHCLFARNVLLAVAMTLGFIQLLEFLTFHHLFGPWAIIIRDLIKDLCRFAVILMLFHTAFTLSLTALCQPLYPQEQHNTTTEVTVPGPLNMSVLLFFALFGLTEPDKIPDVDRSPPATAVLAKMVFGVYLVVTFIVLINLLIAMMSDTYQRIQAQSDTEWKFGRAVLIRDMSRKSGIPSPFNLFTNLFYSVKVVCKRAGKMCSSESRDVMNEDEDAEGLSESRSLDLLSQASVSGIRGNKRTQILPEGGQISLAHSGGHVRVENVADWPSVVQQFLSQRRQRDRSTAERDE

Mucolipin-3 = molecular target: T2, Mucolipin-3 (Homo sapiens, UniProt Q8TDD5); test: Fluorescence counterscreen assay for […] agonists: dose response cell-based high-throughput screening assay to identify agonists of the transient receptor potential channel ML3 (TRPML3). [Related pubchem assays: 1424, 1448 ]; assay type: functional
T2 sequence (Q8TDD5 whole entry): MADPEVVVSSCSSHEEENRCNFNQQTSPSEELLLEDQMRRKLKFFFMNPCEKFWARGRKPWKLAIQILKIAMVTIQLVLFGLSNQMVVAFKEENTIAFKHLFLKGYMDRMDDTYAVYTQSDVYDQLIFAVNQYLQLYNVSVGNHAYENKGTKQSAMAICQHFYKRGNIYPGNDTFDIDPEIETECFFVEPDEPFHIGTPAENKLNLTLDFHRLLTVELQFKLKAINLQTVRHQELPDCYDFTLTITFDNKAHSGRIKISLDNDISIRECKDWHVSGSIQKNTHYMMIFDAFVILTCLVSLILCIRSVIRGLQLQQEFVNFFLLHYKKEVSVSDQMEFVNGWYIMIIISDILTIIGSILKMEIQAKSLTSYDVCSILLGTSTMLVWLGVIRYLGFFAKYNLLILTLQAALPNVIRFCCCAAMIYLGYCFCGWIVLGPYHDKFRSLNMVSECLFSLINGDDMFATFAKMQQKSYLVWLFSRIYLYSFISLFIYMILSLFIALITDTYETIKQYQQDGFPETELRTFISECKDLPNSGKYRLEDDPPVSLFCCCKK

Large T antigen = Large T antigen (Simian virus 40, UniProt P03070); assay type: functional, Betapolyomavirus macacae;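 also: Confirmatory-stage PubChem screen for compounds that inhibit SV40 T antigen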
Large T antigen, sequence (P03070 whole entry): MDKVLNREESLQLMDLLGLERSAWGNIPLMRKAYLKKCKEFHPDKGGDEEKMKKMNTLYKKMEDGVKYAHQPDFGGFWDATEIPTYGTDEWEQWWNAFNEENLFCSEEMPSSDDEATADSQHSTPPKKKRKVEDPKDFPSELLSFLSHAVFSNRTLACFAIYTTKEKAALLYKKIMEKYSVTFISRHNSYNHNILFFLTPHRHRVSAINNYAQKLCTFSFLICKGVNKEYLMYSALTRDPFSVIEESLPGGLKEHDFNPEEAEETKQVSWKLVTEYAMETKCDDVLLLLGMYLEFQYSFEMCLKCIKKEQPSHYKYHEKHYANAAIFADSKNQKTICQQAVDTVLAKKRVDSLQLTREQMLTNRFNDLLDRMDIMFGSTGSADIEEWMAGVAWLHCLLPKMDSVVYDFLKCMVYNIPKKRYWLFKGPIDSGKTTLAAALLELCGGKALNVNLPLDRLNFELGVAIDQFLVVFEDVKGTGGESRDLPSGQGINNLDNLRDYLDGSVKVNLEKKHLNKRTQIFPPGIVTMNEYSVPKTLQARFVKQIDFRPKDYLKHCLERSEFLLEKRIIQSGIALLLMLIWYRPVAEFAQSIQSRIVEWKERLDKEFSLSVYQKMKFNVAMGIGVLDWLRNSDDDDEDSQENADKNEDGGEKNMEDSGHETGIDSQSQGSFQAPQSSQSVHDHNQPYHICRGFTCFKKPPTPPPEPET

Caspase-3 = molecular target: T3, Caspase-3 (Homo sapiens, UniProt P42574); assay type: functional;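 also: Dose-response selectivity test against caspase-3 for candidate inhibitors of sentrin-specific proteases (SENPs)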
T3 sequence (P42574 whole entry): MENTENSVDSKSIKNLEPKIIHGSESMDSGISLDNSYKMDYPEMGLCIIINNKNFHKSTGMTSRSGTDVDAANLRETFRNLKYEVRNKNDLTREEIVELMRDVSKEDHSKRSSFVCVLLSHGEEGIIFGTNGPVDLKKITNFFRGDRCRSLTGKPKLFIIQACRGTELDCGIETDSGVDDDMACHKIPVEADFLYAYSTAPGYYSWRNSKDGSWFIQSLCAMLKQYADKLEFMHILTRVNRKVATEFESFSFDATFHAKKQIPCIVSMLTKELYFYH

[1] = molecular target: T4, Sentrin-specific protease 7 (Homo sapiens, UniProt Q9BQF6); assay type: functional;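 also: Luminescence-based dose-response confirmation of ultra-high-throughput screening hits, measuring inhibition of SENP7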
T4 sequence (Q9BQF6 whole entry): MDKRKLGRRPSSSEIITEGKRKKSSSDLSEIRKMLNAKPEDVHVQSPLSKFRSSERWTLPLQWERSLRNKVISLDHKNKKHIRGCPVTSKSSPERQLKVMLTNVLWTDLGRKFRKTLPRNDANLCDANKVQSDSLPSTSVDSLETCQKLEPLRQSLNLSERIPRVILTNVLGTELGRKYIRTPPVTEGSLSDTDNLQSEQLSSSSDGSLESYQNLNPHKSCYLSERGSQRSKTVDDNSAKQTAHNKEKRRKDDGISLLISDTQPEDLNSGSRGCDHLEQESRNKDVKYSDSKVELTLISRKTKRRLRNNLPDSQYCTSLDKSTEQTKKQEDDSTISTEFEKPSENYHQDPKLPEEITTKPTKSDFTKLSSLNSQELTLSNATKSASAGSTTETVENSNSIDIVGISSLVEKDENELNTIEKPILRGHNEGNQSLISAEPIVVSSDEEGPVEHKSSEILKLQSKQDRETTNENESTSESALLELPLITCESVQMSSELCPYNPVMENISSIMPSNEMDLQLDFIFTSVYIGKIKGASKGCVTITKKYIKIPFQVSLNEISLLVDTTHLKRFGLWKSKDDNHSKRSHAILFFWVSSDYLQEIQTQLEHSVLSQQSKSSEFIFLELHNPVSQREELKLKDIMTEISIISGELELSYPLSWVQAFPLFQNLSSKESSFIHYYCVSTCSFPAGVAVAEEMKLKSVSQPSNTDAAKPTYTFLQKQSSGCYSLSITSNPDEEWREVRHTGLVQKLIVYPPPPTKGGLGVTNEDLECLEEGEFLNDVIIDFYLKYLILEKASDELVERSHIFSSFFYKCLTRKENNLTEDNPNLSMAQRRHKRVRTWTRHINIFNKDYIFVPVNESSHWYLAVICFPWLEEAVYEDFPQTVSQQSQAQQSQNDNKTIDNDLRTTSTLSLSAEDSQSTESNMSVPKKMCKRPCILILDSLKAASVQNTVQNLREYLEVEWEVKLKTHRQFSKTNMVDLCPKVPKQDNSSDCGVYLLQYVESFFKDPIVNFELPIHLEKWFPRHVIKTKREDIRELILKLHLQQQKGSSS

[2] = molecular target: T5, Sentrin-specific protease 6 (Homo sapiens, UniProt Q9GZR1); assay type: functional;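 also: Luminescence-based dose-response confirmatory assay of SENP6 inhibition, following up an ultra-high-throughput screen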
T5 sequence (Q9GZR1 whole entry): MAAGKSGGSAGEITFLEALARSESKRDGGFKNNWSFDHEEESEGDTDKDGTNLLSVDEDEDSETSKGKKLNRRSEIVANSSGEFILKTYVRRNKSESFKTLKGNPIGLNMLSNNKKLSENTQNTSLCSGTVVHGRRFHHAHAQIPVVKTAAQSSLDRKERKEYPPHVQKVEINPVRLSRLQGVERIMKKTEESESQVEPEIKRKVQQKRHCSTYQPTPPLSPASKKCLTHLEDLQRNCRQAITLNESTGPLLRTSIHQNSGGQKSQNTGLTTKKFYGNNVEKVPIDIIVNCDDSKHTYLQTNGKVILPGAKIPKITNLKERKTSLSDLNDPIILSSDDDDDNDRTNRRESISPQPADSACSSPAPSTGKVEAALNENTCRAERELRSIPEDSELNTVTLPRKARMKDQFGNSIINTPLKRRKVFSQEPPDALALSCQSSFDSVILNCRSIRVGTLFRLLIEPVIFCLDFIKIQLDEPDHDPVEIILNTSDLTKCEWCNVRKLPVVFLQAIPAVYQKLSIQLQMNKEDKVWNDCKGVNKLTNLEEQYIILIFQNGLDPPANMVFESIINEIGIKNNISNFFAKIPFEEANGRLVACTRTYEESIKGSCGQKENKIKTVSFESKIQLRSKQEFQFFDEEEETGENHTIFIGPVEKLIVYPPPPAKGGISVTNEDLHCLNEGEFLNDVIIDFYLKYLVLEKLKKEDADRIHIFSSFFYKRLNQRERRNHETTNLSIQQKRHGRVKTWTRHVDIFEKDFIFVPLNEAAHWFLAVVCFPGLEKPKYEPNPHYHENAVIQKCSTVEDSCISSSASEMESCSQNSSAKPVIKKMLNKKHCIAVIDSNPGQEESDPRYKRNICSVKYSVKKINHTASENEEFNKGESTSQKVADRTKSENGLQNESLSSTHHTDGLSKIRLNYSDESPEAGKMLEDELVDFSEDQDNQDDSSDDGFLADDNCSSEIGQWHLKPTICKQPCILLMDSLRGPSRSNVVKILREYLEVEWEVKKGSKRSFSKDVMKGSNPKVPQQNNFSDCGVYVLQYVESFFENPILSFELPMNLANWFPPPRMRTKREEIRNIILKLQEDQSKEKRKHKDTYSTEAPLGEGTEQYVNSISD

[3] = molecular target: T6, Sentrin-specific protease 8 (Homo sapiens, UniProt Q96LD8); assay type: functional;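 also: luminescence read-out of SENP8 inhibition, dose-response confirmation following an ultra-high-throughput screen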
T6 sequence (Q96LD8 whole entry): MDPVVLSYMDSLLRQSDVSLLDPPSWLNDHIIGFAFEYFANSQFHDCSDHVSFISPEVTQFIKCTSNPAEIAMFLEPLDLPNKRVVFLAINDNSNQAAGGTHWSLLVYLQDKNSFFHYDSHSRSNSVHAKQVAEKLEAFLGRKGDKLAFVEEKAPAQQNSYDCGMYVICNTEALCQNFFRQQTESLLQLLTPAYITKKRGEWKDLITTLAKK

Cannabinoid receptor 2 [4] = molecular target: T7, Cannabinoid receptor 2 (Homo sapiens, UniProt P34972); test: SAR analysis of antagonists of the Cannabinoid Receptor 2 using an Image-Based Assay - Set 2. [Related pubchem assays (depositor defined):AID1961, AID1965]; assay type: functional
T7 sequence (P34972 whole entry): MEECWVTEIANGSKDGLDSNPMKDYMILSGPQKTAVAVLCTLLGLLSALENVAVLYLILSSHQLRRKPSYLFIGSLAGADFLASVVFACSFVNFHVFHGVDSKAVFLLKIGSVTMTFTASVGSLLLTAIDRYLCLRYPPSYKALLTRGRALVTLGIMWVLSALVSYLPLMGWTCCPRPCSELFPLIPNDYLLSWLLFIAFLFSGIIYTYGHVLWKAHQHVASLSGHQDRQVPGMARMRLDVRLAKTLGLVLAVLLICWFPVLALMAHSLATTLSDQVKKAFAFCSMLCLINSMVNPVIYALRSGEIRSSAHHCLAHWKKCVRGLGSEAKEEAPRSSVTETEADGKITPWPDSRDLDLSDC

[5] = molecular target: G-protein coupled receptor 55 (Homo sapiens, UniProt Q9Y2T6); test: SAR analysis of selective Agonists of GPR55 using an Image-Based Assay - Set 2. [Related pubchem assays (depositor defined):AID1961, AID1965]; assay type: functional
G-protein coupled receptor 55, sequence (Q9Y2T6 whole entry): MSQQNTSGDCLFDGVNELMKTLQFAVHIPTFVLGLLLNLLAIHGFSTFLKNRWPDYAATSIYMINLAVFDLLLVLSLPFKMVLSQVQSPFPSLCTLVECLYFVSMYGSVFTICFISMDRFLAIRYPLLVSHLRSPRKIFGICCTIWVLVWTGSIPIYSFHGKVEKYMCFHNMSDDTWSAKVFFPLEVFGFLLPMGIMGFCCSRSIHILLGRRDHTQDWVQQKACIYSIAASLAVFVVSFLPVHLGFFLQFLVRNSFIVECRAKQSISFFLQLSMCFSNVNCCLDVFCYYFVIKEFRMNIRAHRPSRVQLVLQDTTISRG

Cannabinoid receptor 2 [6] = molecular target: T7, Cannabinoid receptor 2; test: SAR analysis of agonists of the Cannabinoid Receptor 2 using an Image-Based Assay - Set 2. [Related pubchem assays (depositor defined):AID1961, AID1965]; assay type: functional
[7] = molecular target: T8, G-protein coupled receptor 35 (Homo sapiens, UniProt Q9HC97); test: SAR analysis of Agonists of the GPR35 Receptor using an Image-Based Assay - Set 3. [Related pubchem assays (depositor defined):AID1961, AID1965]; assay type: functional
T8 sequence (Q9HC97 whole entry): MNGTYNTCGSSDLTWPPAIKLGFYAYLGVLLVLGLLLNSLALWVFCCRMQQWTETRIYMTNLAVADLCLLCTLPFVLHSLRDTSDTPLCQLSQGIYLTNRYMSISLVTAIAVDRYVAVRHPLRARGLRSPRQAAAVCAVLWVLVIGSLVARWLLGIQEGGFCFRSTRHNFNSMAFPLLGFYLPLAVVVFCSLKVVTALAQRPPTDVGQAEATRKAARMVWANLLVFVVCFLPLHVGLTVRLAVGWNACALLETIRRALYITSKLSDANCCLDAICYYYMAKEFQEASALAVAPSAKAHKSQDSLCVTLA

Cannabinoid receptor 1 [8] = molecular target: T9, Cannabinoid receptor 1 (Homo sapiens, UniProt P21554); test: SAR analysis of antagonists of the Cannabinoid Receptor 1 using an Image-Based Assay - Set 3. [Related pubchem assays (depositor defined):AID1961, AID1965]; assay type: functional
T9 sequence (P21554 whole entry): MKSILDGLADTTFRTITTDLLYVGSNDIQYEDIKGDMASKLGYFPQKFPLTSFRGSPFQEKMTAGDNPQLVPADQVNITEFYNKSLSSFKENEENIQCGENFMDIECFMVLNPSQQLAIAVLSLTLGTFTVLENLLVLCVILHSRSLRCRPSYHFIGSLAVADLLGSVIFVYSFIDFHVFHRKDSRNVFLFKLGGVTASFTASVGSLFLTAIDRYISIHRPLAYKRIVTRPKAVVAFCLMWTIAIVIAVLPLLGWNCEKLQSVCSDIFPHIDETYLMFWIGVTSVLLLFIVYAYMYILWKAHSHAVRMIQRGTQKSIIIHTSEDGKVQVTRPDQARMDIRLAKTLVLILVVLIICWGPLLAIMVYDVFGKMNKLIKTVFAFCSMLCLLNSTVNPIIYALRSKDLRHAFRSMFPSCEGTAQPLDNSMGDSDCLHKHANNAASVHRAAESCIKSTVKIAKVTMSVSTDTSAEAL

Cannabinoid receptor 1 [9] = molecular target: T9, Cannabinoid receptor 1; test: SAR analysis of agonists of the Cannabinoid Receptor 1 using an Image-Based Assay - Set 3. [Related pubchem assays (depositor defined):AID1961, AID1965]; assay type: functional
[10] = molecular target: T8, G-protein coupled receptor 35; test: SAR analysis of Antagonists of the GPR35 Receptor using an Image-Based Assay - Set 4. [Related pubchem assays (depositor defined):[…]]; assay type: functional
Tumor necrosis factor = Tumor necrosis factor (Homo sapiens, UniProt P01375); test: TNFa-triggered NF-kB activation inhibitors, SAR follow-up, cell-based, revised (AID 2337); assay type: functional
Tumor necrosis factor, sequence (P01375 whole entry): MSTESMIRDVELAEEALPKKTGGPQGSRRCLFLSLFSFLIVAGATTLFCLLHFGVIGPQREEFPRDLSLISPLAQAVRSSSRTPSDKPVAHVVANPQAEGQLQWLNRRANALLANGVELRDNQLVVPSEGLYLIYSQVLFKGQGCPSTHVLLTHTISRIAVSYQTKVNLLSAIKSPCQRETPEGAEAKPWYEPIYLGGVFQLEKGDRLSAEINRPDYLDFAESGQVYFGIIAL

HEK293 = test: cells; details: Homo sapiens;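 also: cells exposed to compound for 14 hours overnight before viability readout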

Trypsin, sequence (P00761 whole entry): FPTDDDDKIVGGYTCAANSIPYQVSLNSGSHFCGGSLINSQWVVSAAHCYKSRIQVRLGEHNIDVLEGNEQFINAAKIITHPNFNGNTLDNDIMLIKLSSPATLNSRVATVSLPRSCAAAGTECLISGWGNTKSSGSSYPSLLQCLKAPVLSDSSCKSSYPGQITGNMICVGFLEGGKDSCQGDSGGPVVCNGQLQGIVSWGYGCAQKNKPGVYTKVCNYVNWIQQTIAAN

| AC50 (Trypsin) | AC50 (CAAX prenyl protease 1) | AC50 (CAAX prenyl protease 2) | IC50 (Cannabinoid receptor 2 [4]) | EC50 [5] | EC50 (Cannabinoid receptor 2 [6]) | EC50 [7] | IC50 (Cannabinoid receptor 1 [8]) | EC50 (Cannabinoid receptor 1 [9]) | IC50 [10] | Compound | also measured |
| --- | --- | --- | --- | --- | --- | --- | --- | --- | --- | --- | --- |
| 28.5 µM (active) | 1.72 µM (active) | 6.01 µM (active) | – | – | – | – | – | – | – | CCC(C)NC(=O)c1cc2c(=O)n3cccc(C)c3nc2s1 (stereo not given) | EC50 (Kallikrein-7): > 69.6 µM (inactive) |
| – | – | – | – | – | – | – | – | – | – | Cc1ccc(NS(=O)(=O)c2ccc(C(=O)OCC(=O)Nc3cc(C)on3)cc2)cc1 | EC50 (Ion channel NompC): > 29.9 µM (inactive); EC50 (Mucolipin-3): > 29.9 µM (not active) |
| 10.8 µM (active) | 4.39 µM (active) | 6.52 µM (active) | – | – | – | – | – | – | – | Oc1ccc(-c2nc3ccccn3c2NCc2ccco2)cc1 | IC50 (Large T antigen): 11.4 µM (active); IC50 (Caspase-3): 17.6 µM (active); IC50 [1]: 16 µM (active); IC50 [2]: 54.4 µM (active); IC50 [3]: 81.9 µM (active) |
| – | – | – | > 32 µM (inactive) | > 32 µM (inactive) | > 32 µM (inactive) | > 32 µM (inactive) | 4.98 µM (active) | > 32 µM (inactive) | > 32 µM (inactive) | CCOc1ccc(S(=O)(=O)N2CCOCC2)cc1NC(=O)c1ccc(N2CCCC2=O)cc1 | – |
| – | – | – | – | – | – | – | – | – | – | CC(=O)N1CCc2cc(S(=O)(=O)N3CCN(c4ccc([N+](=O)[O-])cc4)CC3)ccc21 | IC50 (Tumor necrosis factor): > 20 µM (inactive); IC50 (HEK293): > 20 µM (inactive) |
| – | – | – | > 32 µM (inactive) | > 32 µM (inactive) | > 32 µM (inactive) | > 32 µM (inactive) | > 32 µM (inactive) | > 32 µM (inactive) | > 32 µM (inactive) | O=C(Nc1cc(S(=O)(=O)N2CCOCC2)ccc1OCC(F)(F)F)c1ccc(N2CCCC2=O)cc1 | – |
